Assay results: ChEMBL document CHEMBL5723583, “Data for DCP probe BAY-9835” (2024)
Active and inactive are the calls of the source. The calls are words filed in the database; no cut-off is given here.

How the values were obtained:
[1] = target: Muscarinic acetylcholine receptor M2 (Homo sapiens) (UniProt P08172); experiment: Inhibition of Muscarinic M2 at 10.0 µM in the Eurofins-Panlabs selectivity screen; details: Compound concentration 10.0 uM
[2] = target: Mu-type opioid receptor (Homo sapiens) (UniProt P35372); experiment: Inhibition of Opiate mu (OP3, MOP) at 10.0 µM in the Eurofins-Panlabs selectivity screen; details: Compound concentration 10.0 uM
[3] = target: Sodium-dependent noradrenaline transporter (Homo sapiens) (UniProt P23975); experiment: Inhibition of Transporter, Norepinephrine (NET) at 10.0 µM in the Eurofins-Panlabs selectivity screen; details: Compound concentration 10.0 uM
[4] = target: Angiotensin-converting enzyme (Homo sapiens) (UniProt P12821); experiment: Inhibition of Peptidase, Angiotensin Converting Enzyme at 10.0 µM in the Eurofins-Panlabs selectivity screen; details: Oryctolagus cuniculus; Compound concentration 10.0 uM
[5] = target: Motilin receptor (Homo sapiens) (UniProt O43193); experiment: Inhibition of Motilin at 10.0 µM in the Eurofins-Panlabs selectivity screen; details: Compound concentration 10.0 uM
[6] = target: Aldo-keto reductase family 1 member B1 (Homo sapiens) (UniProt P15121); experiment: Inhibition of Aldose Reductase at 10.0 µM in the Eurofins-Panlabs selectivity screen; details: Rattus norvegicus; Compound concentration 10.0 uM
[7] = target: Disintegrin and metalloproteinase domain-containing protein 17 (Homo sapiens, UniProt P78536); experiment: IC50 of hADAM17 at 1.0 µM in the Bayer in-house protease panel
[8] = target: Delta-type opioid receptor (Homo sapiens) (UniProt P41143); experiment: Inhibition of Opiate delta1 (OP1, DOP) at 10.0 µM in the Eurofins-Panlabs selectivity screen; details: Compound concentration 10.0 uM
[9] = target: A disintegrin and metalloproteinase with thrombospondin motifs 12 (Homo sapiens, UniProt P58397); experiment: Biochemical enzymatic FRET assay (hADAMTS12) ( FRET substrate, HiLyteFluor-488 DELSSMVLELRGLRT-K(QXL520)-E-NH2 (custom synthesis by Anaspec) was used.)
[10] = target: Type-2 angiotensin II receptor (Homo sapiens) (UniProt P50052); experiment: Inhibition of Angiotensin AT2 at 10.0 µM in the Eurofins-Panlabs selectivity screen; details: Compound concentration 10.0 uM
Sequence of Type-2 angiotensin II receptor (Homo sapiens) (P50052 whole entry): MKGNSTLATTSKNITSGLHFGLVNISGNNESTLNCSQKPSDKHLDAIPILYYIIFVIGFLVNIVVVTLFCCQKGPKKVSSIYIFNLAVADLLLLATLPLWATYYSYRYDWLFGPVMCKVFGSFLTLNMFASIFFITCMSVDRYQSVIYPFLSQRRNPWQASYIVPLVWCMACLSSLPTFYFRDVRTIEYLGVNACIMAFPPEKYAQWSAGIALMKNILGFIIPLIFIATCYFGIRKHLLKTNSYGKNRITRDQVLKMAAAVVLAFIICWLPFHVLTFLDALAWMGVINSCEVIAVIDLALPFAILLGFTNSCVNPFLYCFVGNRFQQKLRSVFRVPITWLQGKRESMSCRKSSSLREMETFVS

[11] = target: Histamine H3 receptor (Homo sapiens) (UniProt Q9Y5N1); experiment: Inhibition of Histamine H3 at 10.0 µM in the Eurofins-Panlabs selectivity screen; details: Compound concentration 10.0 uM
Sequence of Histamine H3 receptor (Homo sapiens) (Q9Y5N1 whole entry): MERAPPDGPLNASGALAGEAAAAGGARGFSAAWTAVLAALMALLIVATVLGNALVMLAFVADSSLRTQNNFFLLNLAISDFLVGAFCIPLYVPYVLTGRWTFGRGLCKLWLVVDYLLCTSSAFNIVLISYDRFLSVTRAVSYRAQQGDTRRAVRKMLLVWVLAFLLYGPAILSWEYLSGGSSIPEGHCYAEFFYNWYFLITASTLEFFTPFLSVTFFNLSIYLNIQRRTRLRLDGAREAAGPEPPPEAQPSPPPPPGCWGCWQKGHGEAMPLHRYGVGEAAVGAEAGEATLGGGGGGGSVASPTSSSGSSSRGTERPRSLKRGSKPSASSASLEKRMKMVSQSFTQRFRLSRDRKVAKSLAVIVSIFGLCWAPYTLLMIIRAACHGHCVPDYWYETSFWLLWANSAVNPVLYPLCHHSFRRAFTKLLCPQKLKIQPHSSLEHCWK

[12] = target: Phosphodiesterase 3 (Homo sapiens) (UniProt Q14432+Q13370); experiment: Inhibition of Phosphodiesterase PDE3 at 10.0 µM in the Eurofins-Panlabs selectivity screen; type: protein assay; details: Compound concentration 10.0 uM
[13] = target: B1 bradykinin receptor (Homo sapiens) (UniProt P46663); experiment: Inhibition of Bradykinin B1 at 10.0 µM in the Eurofins-Panlabs selectivity screen; details: Compound concentration 10.0 uM
Sequence of B1 bradykinin receptor (Homo sapiens) (P46663 whole entry): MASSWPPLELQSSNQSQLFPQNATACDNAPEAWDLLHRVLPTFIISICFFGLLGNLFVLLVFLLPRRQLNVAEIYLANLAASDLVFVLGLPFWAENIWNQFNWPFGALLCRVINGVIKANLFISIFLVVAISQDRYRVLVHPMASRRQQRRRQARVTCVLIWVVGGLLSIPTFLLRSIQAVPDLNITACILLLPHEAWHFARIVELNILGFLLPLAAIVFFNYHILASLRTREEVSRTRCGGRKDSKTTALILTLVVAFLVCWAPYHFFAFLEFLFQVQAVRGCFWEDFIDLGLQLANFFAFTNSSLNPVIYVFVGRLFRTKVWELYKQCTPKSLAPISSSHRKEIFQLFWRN

[14] = target: Monoamine oxidase B (MAO-B) (Homo sapiens, UniProt P27338); experiment: Inhibition of Monoamine Oxidase MAO-B at 10.0 µM in the Eurofins-Panlabs selectivity screen; details: compound concentration 10 uM
Sequence of Monoamine oxidase B (MAO-B) (P27338 whole entry, the tested form may be a part): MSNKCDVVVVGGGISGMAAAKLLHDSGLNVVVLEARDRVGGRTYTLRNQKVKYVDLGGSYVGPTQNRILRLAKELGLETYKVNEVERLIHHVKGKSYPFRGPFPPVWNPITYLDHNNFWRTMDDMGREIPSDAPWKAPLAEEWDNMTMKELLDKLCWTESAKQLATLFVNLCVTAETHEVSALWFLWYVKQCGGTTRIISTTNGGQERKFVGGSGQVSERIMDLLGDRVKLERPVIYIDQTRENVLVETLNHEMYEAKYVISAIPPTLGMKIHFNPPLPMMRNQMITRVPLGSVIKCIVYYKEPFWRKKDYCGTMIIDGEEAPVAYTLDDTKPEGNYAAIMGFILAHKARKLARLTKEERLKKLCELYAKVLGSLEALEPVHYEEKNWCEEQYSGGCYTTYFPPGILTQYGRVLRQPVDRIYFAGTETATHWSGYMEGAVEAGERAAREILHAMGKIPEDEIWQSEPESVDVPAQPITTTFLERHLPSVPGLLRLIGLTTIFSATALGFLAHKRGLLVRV

[15] = target: Disintegrin and metalloproteinase domain-containing protein 10 (Homo sapiens, UniProt O14672); experiment: IC50 of hADAM10 at 1.0 µM in the Bayer in-house protease panel
Sequence of Disintegrin and metalloproteinase domain-containing protein 10 (O14672 whole entry, the tested form may be a part): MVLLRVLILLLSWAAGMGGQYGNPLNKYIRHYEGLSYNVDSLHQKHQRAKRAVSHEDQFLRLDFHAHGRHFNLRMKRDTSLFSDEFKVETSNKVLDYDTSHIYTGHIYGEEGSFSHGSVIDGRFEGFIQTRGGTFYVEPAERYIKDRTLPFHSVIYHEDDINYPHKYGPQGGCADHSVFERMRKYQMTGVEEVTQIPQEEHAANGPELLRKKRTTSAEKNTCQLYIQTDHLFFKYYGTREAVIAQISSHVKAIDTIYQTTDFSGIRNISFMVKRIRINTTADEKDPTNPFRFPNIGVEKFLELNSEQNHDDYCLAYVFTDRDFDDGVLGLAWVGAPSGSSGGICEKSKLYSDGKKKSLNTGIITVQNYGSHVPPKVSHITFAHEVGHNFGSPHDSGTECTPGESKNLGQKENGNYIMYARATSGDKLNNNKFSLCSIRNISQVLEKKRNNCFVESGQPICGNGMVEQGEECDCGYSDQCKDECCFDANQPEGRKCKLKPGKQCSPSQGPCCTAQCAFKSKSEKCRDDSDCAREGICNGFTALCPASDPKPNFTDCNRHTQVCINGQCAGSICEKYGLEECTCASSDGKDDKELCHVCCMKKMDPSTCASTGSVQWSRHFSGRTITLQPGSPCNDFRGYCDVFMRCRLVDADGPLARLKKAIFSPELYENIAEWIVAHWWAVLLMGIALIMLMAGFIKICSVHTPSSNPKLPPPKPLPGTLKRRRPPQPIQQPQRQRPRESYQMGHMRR

[16] = target: P2X receptor (Rattus norvegicus) (UniProt P51579+P49653+P51578+Q64663+P47824+P51577+P49654); experiment: Inhibition of Purinergic P2X at 10.0 µM in the Eurofins-Panlabs selectivity screen; type: protein assay; details: Compound concentration 10.0 uM
[17] = target: Beta-2 adrenergic receptor (Homo sapiens) (UniProt P07550); experiment: Inhibition of Adrenergic beta2 at 10.0 µM in the Eurofins-Panlabs selectivity screen; details: Compound concentration 10.0 uM
Sequence of Beta-2 adrenergic receptor (Homo sapiens) (P07550 whole entry, looked up): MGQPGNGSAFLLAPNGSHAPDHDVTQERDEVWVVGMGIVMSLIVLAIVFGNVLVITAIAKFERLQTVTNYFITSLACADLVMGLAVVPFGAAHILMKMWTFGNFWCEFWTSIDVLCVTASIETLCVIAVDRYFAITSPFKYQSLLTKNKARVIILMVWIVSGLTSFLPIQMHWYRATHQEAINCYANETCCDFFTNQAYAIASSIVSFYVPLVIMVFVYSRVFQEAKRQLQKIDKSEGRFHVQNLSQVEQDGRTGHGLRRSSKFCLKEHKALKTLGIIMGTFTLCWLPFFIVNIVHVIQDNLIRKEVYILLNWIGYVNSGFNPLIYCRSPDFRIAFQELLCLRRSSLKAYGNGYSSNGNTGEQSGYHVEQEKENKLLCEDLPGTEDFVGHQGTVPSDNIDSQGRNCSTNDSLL

[18] = target: Muscarinic acetylcholine receptor M4 (Homo sapiens) (UniProt P08173); experiment: Inhibition of Muscarinic M4 at 10.0 µM in the Eurofins-Panlabs selectivity screen; details: Compound concentration 10.0 uM
[19] = target: Glutamate NMDA receptor (Rattus norvegicus) (UniProt P35439+Q00959+Q00960+Q00961+Q62645+Q8VHN2+Q9R1M7); experiment: Inhibition of Glutamate, NMDA, Glycine at 10.0 µM in the Eurofins-Panlabs selectivity screen; type: protein-complex assay; details: Compound concentration 10.0 uM
[20] = target: Glutamate receptor ionotropic, kainate (Rattus norvegicus) (UniProt P22756+Q01812+P42260+P42264+Q63273); experiment: Inhibition of Glutamate, Kainate at 10.0 µM in the Eurofins-Panlabs selectivity screen; type: protein-complex assay; details: Compound concentration 10.0 uM
[21] = target: Acetylcholinesterase (Homo sapiens) (UniProt P22303); experiment: Inhibition of Cholinesterase, Acetyl, ACES at 10.0 µM in the Eurofins-Panlabs selectivity screen; details: Compound concentration 10.0 uM
[22] = target: Alpha-2C adrenergic receptor (Homo sapiens) (UniProt P18825); experiment: Inhibition of Adrenergic alpha2C at 10.0 µM in the Eurofins-Panlabs selectivity screen; details: Compound concentration 10.0 uM
[23] = target: Adenosine receptor A1 (Homo sapiens) (UniProt P30542); experiment: Inhibition of Adenosine A1 at 10.0 µM in the Eurofins-Panlabs selectivity screen; details: Compound concentration 10.0 uM
[24] = target: Histamine H1 receptor (Homo sapiens) (UniProt P35367); experiment: Inhibition of Histamine H1 at 10.0 µM in the Eurofins-Panlabs selectivity screen; details: Compound concentration 10.0 uM
[25] = target: Purinergic P2Y (Rattus norvegicus) (UniProt O35811+Q9EPX4+P49651+Q63371+P41232+O35881+Q6GUG4); experiment: Inhibition of Purinergic P2Y at 10.0 µM in the Eurofins-Panlabs selectivity screen; type: protein assay; details: Compound concentration 10.0 uM
[26] = target: Muscarinic acetylcholine receptor M1 (Homo sapiens) (UniProt P11229); experiment: Inhibition of Muscarinic M1 at 10.0 µM in the Eurofins-Panlabs selectivity screen; details: Compound concentration 10.0 uM
Sequence of Muscarinic acetylcholine receptor M1 (Homo sapiens) (P11229 whole entry): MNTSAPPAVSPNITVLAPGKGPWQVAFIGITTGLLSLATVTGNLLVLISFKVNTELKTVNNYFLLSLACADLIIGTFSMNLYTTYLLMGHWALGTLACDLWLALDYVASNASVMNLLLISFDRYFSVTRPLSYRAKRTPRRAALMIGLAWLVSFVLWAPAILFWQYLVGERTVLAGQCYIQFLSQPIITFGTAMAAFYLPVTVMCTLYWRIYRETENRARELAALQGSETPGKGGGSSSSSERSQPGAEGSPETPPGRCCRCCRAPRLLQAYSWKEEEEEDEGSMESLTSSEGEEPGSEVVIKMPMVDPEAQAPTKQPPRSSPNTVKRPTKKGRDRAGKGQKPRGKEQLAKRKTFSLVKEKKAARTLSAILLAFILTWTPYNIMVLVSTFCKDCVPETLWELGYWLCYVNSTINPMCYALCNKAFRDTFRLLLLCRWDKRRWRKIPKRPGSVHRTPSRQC

[27] = target: Polyunsaturated fatty acid lipoxygenase ALOX15 (Homo sapiens) (UniProt P16050); experiment: Inhibition of Lipoxygenase 15-LO at 10.0 µM in the Eurofins-Panlabs selectivity screen; details: Compound concentration 10.0 uM
Sequence of Polyunsaturated fatty acid lipoxygenase ALOX15 (Homo sapiens) (P16050 whole entry): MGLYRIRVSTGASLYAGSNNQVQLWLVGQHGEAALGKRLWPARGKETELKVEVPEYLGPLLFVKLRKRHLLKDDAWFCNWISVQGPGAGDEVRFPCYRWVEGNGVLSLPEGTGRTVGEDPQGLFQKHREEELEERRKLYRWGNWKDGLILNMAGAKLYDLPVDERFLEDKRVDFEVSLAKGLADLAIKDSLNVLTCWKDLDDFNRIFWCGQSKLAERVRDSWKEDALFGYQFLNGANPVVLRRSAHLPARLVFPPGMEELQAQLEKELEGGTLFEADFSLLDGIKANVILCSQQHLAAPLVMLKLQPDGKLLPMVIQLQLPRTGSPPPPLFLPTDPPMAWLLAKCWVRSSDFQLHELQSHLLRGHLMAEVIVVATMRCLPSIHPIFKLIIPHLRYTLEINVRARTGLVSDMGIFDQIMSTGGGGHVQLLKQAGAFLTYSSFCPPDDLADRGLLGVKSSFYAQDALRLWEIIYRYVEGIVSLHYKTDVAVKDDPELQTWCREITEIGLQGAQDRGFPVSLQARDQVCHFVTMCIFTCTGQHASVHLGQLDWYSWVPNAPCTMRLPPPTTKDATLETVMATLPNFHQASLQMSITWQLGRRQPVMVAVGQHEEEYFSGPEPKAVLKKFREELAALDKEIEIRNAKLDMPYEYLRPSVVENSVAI

[28] = target: Nitric oxide synthase, inducible (Homo sapiens) (UniProt P35228); experiment: Inhibition of Nitric Oxide Synthetase, Inducible (iNOS) at 10.0 µM in the Eurofins-Panlabs selectivity screen; details: Mus musculus; Compound concentration 10.0 uM
[29] = target: Beta-1 adrenergic receptor (Homo sapiens) (UniProt P08588); experiment: Inhibition of Adrenergic beta1 at 10.0 µM in the Eurofins-Panlabs selectivity screen; details: Compound concentration 10.0 uM
Cathepsin S = Cathepsin S (Homo sapiens, UniProt P25774); experiment: IC50 of Cathepsin S at 1.0 µM in the Bayer in-house protease panel
Sequence of Cathepsin S (P25774 whole entry): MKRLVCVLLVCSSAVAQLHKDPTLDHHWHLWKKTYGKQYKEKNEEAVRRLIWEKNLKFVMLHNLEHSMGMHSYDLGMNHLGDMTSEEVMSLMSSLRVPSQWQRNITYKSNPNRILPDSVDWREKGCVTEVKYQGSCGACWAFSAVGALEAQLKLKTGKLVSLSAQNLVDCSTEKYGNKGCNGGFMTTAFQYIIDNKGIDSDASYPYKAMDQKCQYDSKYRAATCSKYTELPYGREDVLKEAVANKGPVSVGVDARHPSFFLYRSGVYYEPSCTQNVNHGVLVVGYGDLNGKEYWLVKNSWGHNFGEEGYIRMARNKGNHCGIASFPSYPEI

[30] = target: A disintegrin and metalloproteinase with thrombospondin motifs 4 (Homo sapiens, UniProt O75173); experiment: IC50 of hADAMTS4 at 1.0 µM in the Bayer in-house protease panel
[31] = target: 72 kDa type IV collagenase (Homo sapiens, UniProt P08253); experiment: IC50 of hMMP2 at 1.0 µM in the Bayer in-house protease panel
Sequence of 72 kDa type IV collagenase (P08253 whole entry): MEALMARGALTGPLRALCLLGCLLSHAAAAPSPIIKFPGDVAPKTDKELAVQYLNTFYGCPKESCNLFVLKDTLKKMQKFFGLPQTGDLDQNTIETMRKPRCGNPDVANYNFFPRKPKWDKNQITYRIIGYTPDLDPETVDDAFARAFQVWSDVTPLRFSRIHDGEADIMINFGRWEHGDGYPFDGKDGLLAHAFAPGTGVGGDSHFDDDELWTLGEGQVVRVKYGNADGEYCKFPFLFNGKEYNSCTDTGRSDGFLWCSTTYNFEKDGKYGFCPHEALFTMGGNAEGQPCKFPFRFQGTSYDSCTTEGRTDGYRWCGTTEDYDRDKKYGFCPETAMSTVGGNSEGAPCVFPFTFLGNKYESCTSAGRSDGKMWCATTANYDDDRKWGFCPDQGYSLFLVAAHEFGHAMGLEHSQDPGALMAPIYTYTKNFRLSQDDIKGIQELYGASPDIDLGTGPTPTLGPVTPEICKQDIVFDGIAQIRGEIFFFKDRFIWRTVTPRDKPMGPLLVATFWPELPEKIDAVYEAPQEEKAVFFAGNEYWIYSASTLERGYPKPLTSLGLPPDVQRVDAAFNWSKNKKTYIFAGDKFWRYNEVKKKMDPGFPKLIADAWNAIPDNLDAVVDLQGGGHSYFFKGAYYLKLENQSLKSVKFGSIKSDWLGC

[32] = target: Nitric oxide synthase 1 (Homo sapiens) (UniProt P29475); experiment: Inhibition of Nitric Oxide Synthase, Neuronal (nNOS) at 10.0 µM in the Eurofins-Panlabs selectivity screen; details: Rattus norvegicus; Compound concentration 10.0 uM
[33] = target: Carbonic anhydrase 2 (Homo sapiens) (UniProt P00918); experiment: Inhibition of Carbonic Anhydrase II at 10.0 µM in the Eurofins-Panlabs selectivity screen; details: Compound concentration 10.0 uM

Cn1nccc1[C@]1(CNC(=O)c2ccc(F)c(F)c2-c2ccc(C(F)(F)F)cc2)NC(=O)NC1=O
inhibition [1]: 1%
inhibition [2]: 2%
inhibition [3]: 6%
inhibition [4]: 3%
inhibition [5]: 3%
inhibition [6]: -4%
IC50 [7]: 5.77 µM
inhibition [8]: 18%
IC50 [9]: 0.03 µM (active)
inhibition [10]: 0%
inhibition [11]: 6%
inhibition [12]: 11%
inhibition [13]: 1%
inhibition at 10 µM [14]: 10%
IC50 [15]: 32.8 µM
inhibition [16]: 0%
inhibition [17]: -9%
inhibition [18]: -6%
inhibition [19]: -4%
inhibition [20]: 12%
inhibition [21]: 3%
inhibition [22]: -1%
inhibition [23]: -4%
inhibition [24]: -1%
inhibition [25]: -4%
inhibition [26]: -6%
inhibition [27]: -6%
inhibition [28]: 0%
inhibition [29]: -8%
IC50 (Cathepsin S): > 100 µM
IC50 [30]: 6.73 µM
IC50 [31]: > 100 µM
inhibition [32]: 0%
inhibition [33]: -2%
